Measurements: PubChem BioAssay AID248 (DTP/NCI, 2004)
Inconclusive results and toxic doses are left out. No stated cut-off is given here; in the data, active means T/C of 150% or more; inactive means T/C below 125%.

System: L1210 leukemia ip in BDF1 mice, survival T/C
Assay: NCI In Vivo Anticancer Drug Screen. Data for tumor model L1210 Leukemia (intraperitoneal) in B6D2F1 (BDF1) mice
Details: endpoint: mean survival time, higher = longer survival
Procedure, shortened: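 Transplanted-tumor mice were given test agent; controls received vehicle only. Survival readings from the two groups were divided (treated over control).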

[1] = dose: 100.0 mg/kg/injection, schedule: Q01DX009 (ip), vehicle: Klucel (hydroxypropylcellulose) (HPC)
[2] = dose: 100.0 mg/kg/injection, schedule: Q04DX003 (ip), vehicle: Klucel (hydroxypropylcellulose) (HPC)
[3] = dose: 200.0 mg/kg/injection, schedule: Q01DX009 (ip), vehicle: Klucel (hydroxypropylcellulose) (HPC)
[4] = dose: 200.0 mg/kg/injection, schedule: Q04DX003 (ip), vehicle: Klucel (hydroxypropylcellulose) (HPC)
[5] = dose: 400.0 mg/kg/injection, schedule: Q01DX009 (ip), vehicle: Klucel (hydroxypropylcellulose) (HPC)
[6] = dose: 400.0 mg/kg/injection, schedule: Q04DX003 (ip), vehicle: Klucel (hydroxypropylcellulose) (HPC)
[7] = dose: 100.0 mg/kg/injection, schedule: Q04DX002 (ip), vehicle: Klucel (hydroxypropylcellulose) (HPC)
[8] = dose: 200.0 mg/kg/injection, schedule: Q04DX002 (ip), vehicle: Klucel (hydroxypropylcellulose) (HPC)
[9] = dose: 400.0 mg/kg/injection, schedule: Q04DX002 (ip), vehicle: Klucel (hydroxypropylcellulose) (HPC)
[10] = dose: 10.0 mg/kg/injection, schedule: Q01DX001 (ip), vehicle: saline
[11] = dose: 20.0 mg/kg/injection, schedule: Q01DX001 (ip), vehicle: saline
[12] = dose: 100.0 mg/kg/injection, schedule: Q01DX009 (ip), vehicle: saline with Tween-80

Measured: T/C

COC(=O)CNc1ccc(S(=O)(=O)c2ccc(N)cc2)cc1
inactive: [1] 107 % of control | [2] 97 % of control | [3] 92 % of control | [4] 101 % of control | [5] 88 % of control | [6] 97 % of control

CCP(=S)(CC)CC
inactive: [7] 104 % of control | [8] 96 % of control | [9] 93 % of control

O=C1c2cccc3cccc(c23)C(=O)N1NCCO
inactive: [1] 93 % of control | [3] 89 % of control

C(=N\C(/N=C/c1ccccc1)c1ccccc1)/c1ccccc1
inactive: [1] 96 % of control | [2] 92 % of control | [3] 94 % of control | [4] 94 % of control | [5] 92 % of control | [6] 92 % of control

CC1CCCCC1C(=O)N1CCCCC1 (stereo not drawn)
inactive: dose: 100.0 mg/kg/injection, schedule: Q04DX002 (ip), vehicle: saline 117 % of control | dose: 200.0 mg/kg/injection, schedule: Q04DX002 (ip), vehicle: saline 96 % of control | dose: 400.0 mg/kg/injection, schedule: Q04DX002 (ip), vehicle: saline 101 % of control

Cc1ccc(I)c([N+](=O)[O-])c1
inactive: dose: 50.0 mg/kg/injection, schedule: Q01DX001 (ip), vehicle: carboxymethylcellulose (CMC) 96 % of control | dose: 100.0 mg/kg/injection, schedule: Q01DX001 (ip), vehicle: carboxymethylcellulose (CMC) 89 % of control | dose: 200.0 mg/kg/injection, schedule: Q01DX001 (ip), vehicle: carboxymethylcellulose (CMC) 91 % of control | dose: 400.0 mg/kg/injection, schedule: Q01DX001 (ip), vehicle: carboxymethylcellulose (CMC) 100 % of control

CCCCCCC(O)CCc1ccccc1 (stereo not drawn)
inactive: [1] 103 % of control | [3] 102 % of control | [5] 113 % of control

CCN(CC)CC(=O)NCC(CCN1CCCC1)(c1cccc2ccccc12)C(C)C (stereo not drawn)
inactive: dose: 25.0 mg/kg/injection, schedule: Q01DX009 (ip), vehicle: saline 101 % of control | dose: 50.0 mg/kg/injection, schedule: Q01DX009 (ip), vehicle: saline 98 % of control | dose: 100.0 mg/kg/injection, schedule: Q01DX009 (ip), vehicle: saline 101 % of control

CCCCCCCCCC(=O)N1CCCCCC1
inactive: [7] 98 % of control | [8] 95 % of control | [9] 88 % of control

O=c1oc(-c2cccc([N+](=O)[O-])c2)nc2cc(Cl)ccc12
inactive: dose: 50.0 mg/kg/injection, schedule: Q04DX002 (ip), vehicle: saline with Tween-80 90 % of control | dose: 100.0 mg/kg/injection, schedule: Q04DX002 (ip), vehicle: saline with Tween-80 93 % of control | dose: 200.0 mg/kg/injection, schedule: Q04DX002 (ip), vehicle: saline with Tween-80 93 % of control | dose: 400.0 mg/kg/injection, schedule: Q04DX002 (ip), vehicle: saline with Tween-80 107 % of control

O=S(=O)([O-])Sn1c(-c2ccccc2)c[n+]2ccccc12
inactive: dose: 5.0 mg/kg/injection, schedule: Q01DX009 (ip), vehicle: saline 96 % of control | [10] 102 % of control | dose: 10.0 mg/kg/injection, schedule: Q01DX009 (ip), vehicle: saline 101 % of control | dose: 10.0 mg/kg/injection, schedule: Q04DX003 (ip), vehicle: saline 100 % of control | [11] 100 % of control | dose: 20.0 mg/kg/injection, schedule: Q01DX009 (ip), vehicle: saline 120 % of control | dose: 20.0 mg/kg/injection, schedule: Q04DX003 (ip), vehicle: saline 97 % of control | dose: 40.0 mg/kg/injection, schedule: Q01DX001 (ip), vehicle: saline 96 % of control | dose: 40.0 mg/kg/injection, schedule: Q04DX003 (ip), vehicle: saline 106 % of control

Cc1cc(C)c(NC(=O)C(Br)C(Br)c2ccccc2)c(C)c1 (stereo not drawn)
inactive: [1] 98 % of control | [3] 98 % of control | [5] 98 % of control

CC1(C)N=C(N)N=C(N)N1c1cccc(CCCCc2cccc(N)c2)c1
inactive: dose: 5.0 mg/kg/injection, schedule: Q01DX001 (ip), vehicle: saline 98 % of control | [10] 102 % of control | [11] 113 % of control

COC(=O)/C=C(\C)Oc1cc(Cl)c(Cl)cc1Cl
inactive: [12] 94 % of control | dose: 200.0 mg/kg/injection, schedule: Q01DX009 (ip), vehicle: saline with Tween-80 97 % of control | dose: 400.0 mg/kg/injection, schedule: Q01DX009 (ip), vehicle: saline with Tween-80 97 % of control

COc1ccc(NC(=O)Nc2ccc(Cl)cc2C)cc1
inactive: dose: 100.0 mg/kg/injection, schedule: Q01DX009 (sc), vehicle: olive oil, sesame oil, peanut oil 100 % of control | dose: 100.0 mg/kg/injection, schedule: Q04DX003 (sc), vehicle: olive oil, sesame oil, peanut oil 101 % of control | dose: 200.0 mg/kg/injection, schedule: Q01DX009 (sc), vehicle: olive oil, sesame oil, peanut oil 102 % of control | dose: 200.0 mg/kg/injection, schedule: Q04DX003 (sc), vehicle: olive oil, sesame oil, peanut oil 100 % of control | dose: 400.0 mg/kg/injection, schedule: Q01DX009 (sc), vehicle: olive oil, sesame oil, peanut oil 96 % of control | dose: 400.0 mg/kg/injection, schedule: Q04DX003 (sc), vehicle: olive oil, sesame oil, peanut oil 98 % of control

Cc1csc2[nH]c(=O)[nH]c(=O)c12
inactive: dose: 100.0 mg/kg/injection, schedule: Q01DX009 (ip), vehicle: water 104 % of control | dose: 100.0 mg/kg/injection, schedule: Q04DX003 (ip), vehicle: water 112 % of control | dose: 200.0 mg/kg/injection, schedule: Q04DX003 (ip), vehicle: water 115 % of control | dose: 400.0 mg/kg/injection, schedule: Q01DX009 (ip), vehicle: water 86 % of control | dose: 400.0 mg/kg/injection, schedule: Q04DX003 (ip), vehicle: water 118 % of control

COc1ccc(NC(=S)N(CCC#N)C2CCCCC2)cc1
inactive: [7] 101 % of control | [8] 94 % of control | [9] 90 % of control

Cn1ncc2c(NCc3ccccc3Cl)ncnc21
inactive: dose: 25.0 mg/kg/injection, schedule: Q01DX009 (ip), vehicle: saline with Tween-80 102 % of control | dose: 50.0 mg/kg/injection, schedule: Q01DX009 (ip), vehicle: saline with Tween-80 108 % of control | [12] 124 % of control | dose: 200.0 mg/kg/injection, schedule: Q01DX009 (ip), vehicle: other 93 % of control

CCOC(=O)c1ccc(N=Cc2cnc(N)nc2N)cc1
inactive: dose: 100.0 mg/kg/injection, schedule: Q01DX001 (ip), vehicle: other 93 % of control | dose: 200.0 mg/kg/injection, schedule: Q01DX001 (ip), vehicle: other 87 % of control | dose: 400.0 mg/kg/injection, schedule: Q01DX001 (ip), vehicle: other 93 % of control

CCCCCCCCCCCCCCCCSC1CC(=O)N(c2ccc3c(c2)Cc2ccccc2-3)C1=O (stereo not drawn)
inactive: [2] 96 % of control | [4] 96 % of control | [6] 100 % of control

O=C(O)CN(CC(=O)O)c1ccccc1
inactive: dose: 50.0 mg/kg/injection, schedule: Q01DX001 (ip), vehicle: saline 103 % of control | dose: 100.0 mg/kg/injection, schedule: Q01DX001 (ip), vehicle: saline 92 % of control | dose: 200.0 mg/kg/injection, schedule: Q01DX001 (ip), vehicle: saline 103 % of control | dose: 400.0 mg/kg/injection, schedule: Q01DX001 (ip), vehicle: saline 95 % of control
